The source of these data is patent US20250114472A1, “CONJUGATE AND USE THEREOF” (BEIJING CHEMPION BIOTECHNOLOGY CO., LTD., priority 2022, published 2025).

Where a SMILES comes first, the peptide text is derived from it. [ ]: non-standard residue; d: D form. The star is where a group is joined. Dolaproine = CO[C@@H]([C@@H]1CCCN1)[C@@H](C)C(=O)O; Dil = CC[C@H](C)[C@H](NC)[C@@H](CC(=O)O)OC; X1 = C[C@@H](N*)[C@@H](O)c1ccccc1; NMeV = CN[C@H](C(=O)O)C(C)C

The subject of this assay is NCI-N87 cells. Nature of the assay: Cytotoxicity assay (Cell Titer Glo cell viability). The class given is cell-based. Conditions: 144 hours, CTG. In general terms: Cellular ATP, detected with luciferase, serves as a proxy for viable cell number.

Text: Cell viability assay was used to detect the cytotoxicity of an ADC antibody on NCI-N87 cells. This method can quantitatively analyze and specifically detect the cytotoxicity of an ADC antibody on NCI-N87 cells. Cells cultured without addition of ADC antibody were used as a blank control to determine the threshold of the cell viability detection. A signal below this threshold was considered as a specific signal generated after the ADC antibody killed cells. NCI-N87 cells (5×10^3 cells/well) were resuspended in a RPMI1640 medium containing 15% FBS and inoculated into a black 96-well plate with transparent bottom in a volume of 50 μL. The 96-well plate was placed in an incubator set at 37° C. and 5% CO2 overnight. After the overnight incubation, 50 μL of different concentrations of ADC antibodies or MMAE (starting from 400 nM, 4-fold serial dilution) were added to the 96-well plate (making the total volume to 100 μL/well), and the 96-well plate was placed in an incubator set at 37° C. and 5% CO2 for 144 hours. Cell Titer Glo (50 μL/well) was added to each well and the mixture was thoroughly mixed. The luciferase intensity was read using Envision. The cytotoxic effect was calculated using the following formula: cytotoxicity %=100* (RFUcell only−RFUsample)/RFUcell only. The IC50 value was calculated by four-parameter nonlinear regression analysis using GraphPad Prism 7 software.

As to `CC[C@H](C)[C@@H]([C@@H](CC(=O)N1CCC[C@H]1[C@H](OC)[C@@H](C)C(=O)N[C@H](C)[C@@H](O)c1ccccc1)OC)N(C)C(=O)[C@@H](NC(=O)[C@@H](NC)C(C)C)C(C)C` [MMAE, monomethyl auristatin E] (H-[NMeV]V[Dil][Dolaproine]-X1), the “Max Inh %” value (from 400 nM) worked out at 90.41%. The same compound came in with an IC50 (Homo sapiens) of 0.12 nM.

Broadly, the IC50 is the concentration at which inhibition is half-maximal. A lower IC50 goes with higher potency.
